Results published in patent US6972296B2, “Carboxylic acid derivatives that inhibit the binding of integrins to their receptors” (Encysive Pharmaceuticals Inc., priority 1999, dated 2005).

Target: T1, α4β1 integrin (Homo sapiens, UniProt P05556+P13612)
T1 construct: endogenous in cells; host or cells: Ramos cells
Test: Adhesion of calcein-labeled Ramos cells to CS1 (fibronectin) peptide conjugated ovalbumin
Type: cell-based
Conditions: Ramos cell adhesion to CS1 conjugated ovalbumin
How it was run: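 Plates bearing CS1 fibronectin peptide coupled to ovalbumin (0.5 μg/ml coat, 3% BSA block) received calcein-labelled Ramos cells plus compound (100 μM stated) for 30 min at 37 °C. Buffer was TBS pH 7.5 with 1 mM Mg2+, Ca2+, Mn2+; bound cells quantified by fluorescence after lysis; […].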

[1] = Table 7, dose required to give 50% inhibition
[2] = Table 5, dose required to give 50% inhibition

T1 sequence (P13612 34-1032): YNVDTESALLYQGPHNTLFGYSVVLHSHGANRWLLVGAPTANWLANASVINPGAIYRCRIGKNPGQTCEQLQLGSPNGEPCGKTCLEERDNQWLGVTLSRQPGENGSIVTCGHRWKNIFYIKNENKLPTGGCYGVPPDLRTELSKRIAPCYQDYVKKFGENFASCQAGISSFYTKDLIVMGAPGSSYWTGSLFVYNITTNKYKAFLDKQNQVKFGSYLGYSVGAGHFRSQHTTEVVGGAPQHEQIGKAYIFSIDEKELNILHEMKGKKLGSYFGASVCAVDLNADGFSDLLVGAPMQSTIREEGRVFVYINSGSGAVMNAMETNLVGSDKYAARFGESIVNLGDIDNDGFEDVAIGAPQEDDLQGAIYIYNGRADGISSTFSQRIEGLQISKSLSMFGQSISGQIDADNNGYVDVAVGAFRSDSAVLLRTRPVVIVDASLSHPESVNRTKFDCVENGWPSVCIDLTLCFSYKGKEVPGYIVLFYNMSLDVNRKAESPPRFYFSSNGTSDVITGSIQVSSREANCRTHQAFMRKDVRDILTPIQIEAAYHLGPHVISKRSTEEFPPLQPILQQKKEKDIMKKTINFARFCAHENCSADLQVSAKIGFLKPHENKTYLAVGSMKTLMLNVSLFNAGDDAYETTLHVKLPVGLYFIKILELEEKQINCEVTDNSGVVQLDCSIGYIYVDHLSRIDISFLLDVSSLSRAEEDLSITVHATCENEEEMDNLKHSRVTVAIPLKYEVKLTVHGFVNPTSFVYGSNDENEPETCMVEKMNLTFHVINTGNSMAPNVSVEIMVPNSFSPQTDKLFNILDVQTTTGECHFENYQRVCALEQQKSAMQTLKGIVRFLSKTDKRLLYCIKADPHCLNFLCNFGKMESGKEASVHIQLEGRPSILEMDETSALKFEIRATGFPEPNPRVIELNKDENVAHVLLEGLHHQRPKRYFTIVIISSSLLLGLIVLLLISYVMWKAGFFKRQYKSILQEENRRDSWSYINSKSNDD
T1 sequence (P05556 21-798): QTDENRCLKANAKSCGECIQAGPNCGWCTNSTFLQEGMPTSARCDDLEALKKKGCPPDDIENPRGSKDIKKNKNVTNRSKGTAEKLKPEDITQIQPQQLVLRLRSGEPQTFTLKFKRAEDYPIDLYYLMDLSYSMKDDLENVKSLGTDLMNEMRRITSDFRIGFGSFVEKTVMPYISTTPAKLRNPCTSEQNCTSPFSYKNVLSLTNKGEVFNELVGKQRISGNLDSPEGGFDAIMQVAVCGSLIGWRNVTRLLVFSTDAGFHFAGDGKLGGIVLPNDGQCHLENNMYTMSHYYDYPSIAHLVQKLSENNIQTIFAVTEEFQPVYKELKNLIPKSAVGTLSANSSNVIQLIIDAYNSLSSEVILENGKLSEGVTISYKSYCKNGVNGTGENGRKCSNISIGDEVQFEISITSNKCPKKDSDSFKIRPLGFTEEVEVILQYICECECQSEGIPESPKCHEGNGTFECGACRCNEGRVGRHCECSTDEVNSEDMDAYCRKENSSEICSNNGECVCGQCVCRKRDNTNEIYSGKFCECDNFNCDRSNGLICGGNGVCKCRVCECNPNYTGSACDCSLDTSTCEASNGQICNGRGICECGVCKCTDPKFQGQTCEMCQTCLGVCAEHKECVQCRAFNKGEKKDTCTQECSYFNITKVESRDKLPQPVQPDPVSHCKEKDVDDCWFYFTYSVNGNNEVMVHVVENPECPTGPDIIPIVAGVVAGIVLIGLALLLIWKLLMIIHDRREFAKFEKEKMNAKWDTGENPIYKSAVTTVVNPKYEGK

## Cc1cccc(Cl)c1Cn1c2c(c(O)c(NC(=O)N[C@@H](CC(=O)O)c3cccc(OC(F)(F)F)c3)c1=O)CCC2
[1]
  IC50: 11 nM

## Cc1cn(Cc2ccccc2Cl)c(=O)c(NC(=O)NC(CC(=O)O)c2ccc3ccccc3c2)c1O (stereo not shown)
[2]
  IC50: 30 nM

## Cc1cn(Cc2ccccc2Cl)c(=O)c(NC(=O)N[C@@H](CC(=O)O)c2cccc(OC3CCCC3)c2)c1O
Table 6, 30 minutes at 37° C.
  IC50: 15 nM

## O=C(Nc1cccn(Cc2ccccc2Cl)c1=O)N[C@H](Cc1ccccc1)C(=O)O
Table 4, 30 minutes at 37° C.
  IC50: 50000 nM

## CCc1ccc([C@H](CC(=O)O)NC(=O)Nc2c(O)ccn(Cc3ccccc3Cl)c2=O)cc1
Table 4, 30 minutes at 37° C.
  IC50: 25 nM

## O=C(O)C[C@H](NC(=O)Nc1c(O)c2c(n(Cc3ccccc3Cl)c1=O)CCC2)c1ccccc1
[1]
  IC50: 8 nM

## O=C(O)C[C@H](NC(=O)Nc1cccn(Cc2ccccc2)c1=O)c1ccc2c(c1)OCO2
Table 4, 30 minutes at 37° C.
  IC50: 500 nM

## Cc1ccc([C@H](CC(=O)O)NC(=O)Nc2c(O)c(C)c(C)n(Cc3c(C)cccc3Cl)c2=O)cc1
[2]
  IC50: 30 nM

## Cc1ccc([C@H](CC(=O)O)NC(=O)Nc2cc(C(F)(F)F)cn(Cc3ccccc3)c2=O)cc1
[2]
  IC50: 1500 nM

## O=C(O)C[C@H](NC(=O)Nc1c(O)ccn(Cc2ccccc2Cl)c1=O)c1ccc2c(c1)OCO2
Table 3, 30 minutes at 37° C.
  IC50: 20 nM

## O=C(O)C[C@@H](CCc1ccccc1)NC(=O)Nc1c(O)ccn(Cc2ccccc2Cl)c1=O
Table 6, 30 minutes at 37° C.
  IC50: 115 nM

## CCOc1cccc(Cl)c1Cn1cc(C2CC2)c(O)c(NC(=O)N[C@@H](CC(=O)O)c2ccc(C)cc2)c1=O [(3S)-3-[({[1-(2-chloro-6-ethoxybenzyl)-5-cyclopropyl-4-hydroxy-2-oxo-1,2-dihydropyridin-3-yl]amino}carbonyl)amino]-3-(4-methylphenyl)propanoic acid]
[1]
  IC50: 3 nM

## COc1cc([C@H](CC(=O)O)NC(=O)Nc2cccn(Cc3cccs3)c2=O)cc(OC)c1OC
Table 4, 30 minutes at 37° C.
  IC50: 300 nM

## COc1ccc([C@H](CC(=O)O)NC(=O)Nc2cccn(Cc3ccccc3Cl)c2=O)cc1C
Table 4, 30 minutes at 37° C.
  IC50: 40 nM

## Cc1ccc([C@H](CC(=O)O)NC(=O)Nc2cccn(Cc3cccc(O)c3)c2=O)cc1
Table 4, 30 minutes at 37° C.
  IC50: 200 nM

## O=C(O)CC(NC(=O)Nc1c(O)ccn(Cc2ccccc2Cl)c1=O)c1ccc(Cl)c(Cl)c1 (stereo not shown)
Table 3, 30 minutes at 37° C.
  IC50: 40 nM
Table 4, 30 minutes at 37° C.
  IC50: 40 nM

## COc1cc([C@H](CC(=O)O)NC(=O)Nc2c(O)c(C)cn(Cc3ccccc3Cl)c2=O)ccc1C
[2]
  IC50: 20 nM

## Cc1ccc([C@H](CC(=O)O)NC(=O)Nc2c(O)c(C)cn(Cc3c(C)cccc3Cl)c2=O)cc1 [(3S)-3-[({[1-(2-chloro-6-methylbenzyl)-4-hydroxy-5-methyl-2-oxo-1,2-dihydropyridin-3-yl]amino}carbonyl)amino]-3-(4-methylphenyl)propanoic acid]
[2]
  IC50: 10 nM

## O=C(O)CC(NC(=O)Nc1cccn(Cc2ccccc2Cl)c1=O)c1ccc(Cl)cc1 (stereo not shown)
Table 4, 30 minutes at 37° C.
  IC50: 400 nM

## COc1ccc(Cn2cccc(NC(=O)N[C@@H](CC(=O)O)c3ccc4c(c3)OCO4)c2=O)cc1
Table 4, 30 minutes at 37° C.
  IC50: 3000 nM

## O=C(O)C[C@H](NC(=O)Nc1cccn(Cc2ccccc2Cl)c1=O)c1ccc2c(c1)OCO2
Table 4, 30 minutes at 37° C.
  IC50: 300 nM

## CCCc1cn(Cc2c(Cl)cccc2OC)c(=O)c(NC(=O)N[C@@H](CC(=O)O)c2ccc(C)c(C)c2)c1O
Table 6, 30 minutes at 37° C.
  IC50: 17 nM

## CCOc1cccc(Cl)c1Cn1nc(C)c(O)c(NC(=O)N[C@@H](CC(=O)O)c2cccc(OC(C)C)c2)c1=O
[1]
  IC50: 2 nM

## CCOc1cccc(Cl)c1Cn1cc(C)c(O)c(NC(=O)N[C@@H](CC(=O)O)c2ccc3c(c2)CCO3)c1=O [(3S)-3-[({[1-(2-chloro-6-ethoxybenzyl)-4-hydroxy-5-methyl-2-oxo-1,2-dihydropyridin-3-yl]amino}carbonyl)amino]-3-(2,3-dihydro-1-benzofuran-5-yl)propanoic acid]
[1]
  IC50: 2 nM

## Cc1ccc([C@H](CC(=O)O)NC(=O)Nc2c(-c3ccccc3)ccn(Cc3ccccc3Cl)c2=O)cc1 [(3S)-3-{[({1-[(2-chlorophenyl)methyl]-2-oxo-4-phenyl-1,2-dihydro-3-pyridinyl}amino)carbonyl]amino}-3-(4-methylphenyl)propanoic acid]
Table 3, 30 minutes at 37° C.
  IC50: 10 nM

## Cc1cccc(Cl)c1Cn1c2c(c(O)c(NC(=O)N[C@@H](CC(=O)O)c3cccc(OC(C)C)c3)c1=O)CCC2
[1]
  IC50: 10 nM

## O=C(O)C[C@H](NC(=O)Nc1cccn(Cc2cccs2)c1=O)c1ccc2c(c1)CCO2
Table 4, 30 minutes at 37° C.
  IC50: 140 nM

## Cc1ccc([C@H](CC(=O)O)NC(=O)Nc2cccn(Cc3ccccc3F)c2=O)cc1
Table 4, 30 minutes at 37° C.
  IC50: 100 nM

## Cc1ccc([C@H](CC(=O)O)NC(=O)Nc2c(O)c(C)cn(Cc3ccc(S(C)(=O)=O)cc3)c2=O)cc1
[2]
  IC50: 20 nM

## Cc1ccc([C@H](CC(=O)O)NC(=O)Nc2c(O)c(C)cn(Cc3cc(Cl)ccc3F)c2=O)cc1
Table 6, 30 minutes at 37° C.
  IC50: 15 nM

## CCOc1cccc(Cl)c1Cn1cc(C)c(O)c(NC(=O)N[C@@H](CC(=O)O)c2cccc(C(F)(F)F)c2)c1=O
[1]
  IC50: 3 nM

## O=C(O)C[C@@H](Cc1cccc(C(F)(F)F)c1)NC(=O)Nc1c(O)ccn(Cc2ccccc2Cl)c1=O
[2]
  IC50: 350 nM

## Cc1ccc([C@H](CC(=O)O)NC(=O)Nc2c(C)ccn(Cc3ccccc3Br)c2=O)cc1 [(3S)-3-{[({1-[(2-bromophenyl)methyl]-4-methyl-2-oxo-1,2-dihydro-3-pyridinyl}amino)carbonyl]amino}-3-(4-methylphenyl)propanoic acid]
Table 3, 30 minutes at 37° C.
  IC50: 10 nM

## O=C(O)C[C@H](NC(=O)Nc1cccn(Cc2cccs2)c1=O)c1ccc2c(c1)OCO2 [(3S)-3-(1,3-benzodioxol-5-yl)-3-[({[2-oxo-1-(2-thienylmethyl)-1,2-dihydro-3-pyridinyl]amino}carbonyl)amino]propanoic acid]
Table 2, 30 minutes at 37° C.
  IC50: 900 nM

## Cc1cn(Cc2ccccc2Cl)c(=O)c(NC(=O)N[C@@H](CC(=O)O)c2cccc(-c3ccccc3F)c2)c1O
[1]
  IC50: 25 nM

## Cc1cccc(Cl)c1Cn1c2c(c(O)c(NC(=O)N[C@@H](CC(=O)O)c3cccc(NS(C)(=O)=O)c3)c1=O)CCC2 [(3S)-3-{[({1-[(2-chloro-6-methylphenyl)methyl]-4-hydroxy-2-oxo-2,5,6,7-tetrahydro-1H-cyclopenta[b]pyridin-3-yl}amino)carbonyl]amino}-3-{3-[(methylsulfonyl)amino]phenyl}propanoic acid]
[1]
  IC50: 3 nM

## CCOc1cccc(Cl)c1Cn1c2c(c(O)c(NC(=O)N[C@@H](CC(=O)O)c3cccc(OC4CCCC4)c3)c1=O)CCC2
[1]
  IC50: 6 nM

## COc1cc([C@H](CC(=O)O)NC(=O)Nc2c(O)c(C)cn(Cc3c(C)cccc3Cl)c2=O)ccc1C
Table 6, 30 minutes at 37° C.
  IC50: 25 nM

## Cn1ccc2ccc([C@H](CC(=O)O)NC(=O)Nc3c(O)c4c(n(Cc5ccccc5Cl)c3=O)CCC4)cc21
[1]
  IC50: 3 nM

## CCOc1ccc([C@H](CC(=O)O)NC(=O)Nc2c(O)c3c(n(Cc4ccccc4Cl)c2=O)CCC3)cc1OCC
Table 6, 30 minutes at 37° C.
  IC50: 3 nM

## COc1c(Cn2cccc(NC(=O)N[C@@H](CC(=O)O)c3ccc(C)cc3)c2=O)cccc1C(C)(C)C
[2]
  IC50: 2500 nM

## CCOc1cccc([C@H](CC(=O)O)NC(=O)Nc2c(O)c3c(n(Cc4ccccc4Cl)c2=O)CCC3)c1
Table 6, 30 minutes at 37° C.
  IC50: 3 nM

## Cc1ccc([C@H](CC(=O)O)NC(=O)Nc2c(O)ccn(Cc3cc(C(F)(F)F)cc(C(F)(F)F)c3)c2=O)cc1
[2]
  IC50: 300 nM

## Cc1ccc(C[C@@H](CC(=O)O)NC(=O)Nc2c(O)ccn(Cc3ccccc3Cl)c2=O)cc1
[2]
  IC50: 30000 nM

## C[C@H](CC(=O)O)NC(=O)Nc1c(O)c2c(n(Cc3ccccc3Cl)c1=O)CCC2
[1]
  IC50: 15 nM

## Cc1cc([C@H](CC(=O)O)NC(=O)Nc2cccn(Cc3ccccc3Cl)c2=O)ccc1O
Table 4, 30 minutes at 37° C.
  IC50: 70 nM

## Cc1ccccc1[C@H](CC(=O)O)NC(=O)Nc1cccn(Cc2ccccc2Cl)c1=O
Table 4, 30 minutes at 37° C.
  IC50: 3000 nM

## Cc1ccc([C@H](CC(=O)O)NC(=O)Nc2c(O)c(C)cn(Cc3cc(S(=O)(=O)N4CCCC4)ccc3Cl)c2=O)cc1
[1]
  IC50: 15 nM

## COc1cc([C@H](CC(=O)O)NC(=O)Nc2c(O)ccn(Cc3ccccc3Cl)c2=O)cc(OC)c1OC
Table 3, 30 minutes at 37° C.
  IC50: 20 nM

## Cc1ccc([C@H](CC(=O)O)NC(=O)Nc2c(O)ccn(Cc3ccc(S(=O)(=O)N(C)C)cc3)c2=O)cc1
[2]
  IC50: 35 nM

## CCCc1ccn(Cc2ccccc2Cl)c(=O)c1NC(=O)N[C@@H](CC(=O)O)c1ccc(C)cc1
Table 3, 30 minutes at 37° C.
  IC50: 4 nM

## O=C(O)CC(NC(=O)Nc1c(O)c2c(n(Cc3ccccc3Cl)c1=O)CCC2)c1ccco1 (stereo not shown)
[1]
  IC50: 5 nM

## Cc1ccn(Cc2ccccc2Cl)c(=O)c1NC(=O)N[C@H](C)CC(=O)O
Table 3, 30 minutes at 37° C.
  IC50: 300 nM

## CCOc1cc(OCC)cc([C@H](CC(=O)O)NC(=O)Nc2c(O)c(C)nn(Cc3ccccc3Cl)c2=O)c1
Table 6, 30 minutes at 37° C.
  IC50: 10 nM

## COc1cccc(Cl)c1Cn1cc(C)c(O)c(NC(=O)N[C@@H](CC(=O)O)c2ccc(C)cc2)c1=O
Table 6, 30 minutes at 37° C.
  IC50: 5 nM

## O=C(O)C[C@H](NC(=O)Nc1c(O)ccn(Cc2ccccc2Cl)c1=O)C(c1ccccc1)c1ccccc1
[2]
  IC50: 12000 nM

## Cc1ccc([C@H](CC(=O)O)NC(=O)Nc2c(O)c(C)cn(Cc3ccc(Cl)cc3Cl)c2=O)cc1
[2]
  IC50: 20 nM

## Cc1cn(Cc2ccccc2Cl)c(=O)c(NC(=O)N[C@@H](CC(=O)O)c2ccc3c(c2)CCO3)c1O
[1]
  IC50: 6 nM

## Cc1ccc([C@H](CC(=O)O)NC(=O)Nc2c(O)c(C)cn(Cc3c(F)cccc3C(F)(F)F)c2=O)cc1
Table 6, 30 minutes at 37° C.
  IC50: 100 nM

## CCOc1cc([C@H](CC(=O)O)NC(=O)Nc2c(O)c(C)cn(Cc3ccccc3Cl)c2=O)ccc1-c1ccccc1
[1]
  IC50: 25 nM

## CCCc1cn(Cc2ccc(Cl)cc2)c(=O)c(NC(=O)N[C@@H](CC(=O)O)c2ccc(OCC)c(OCC)c2)c1O
[2]
  IC50: 15 nM

## Cc1ccc([C@H](CC(=O)O)NC(=O)Nc2c(C)ccn(Cc3ccccc3Cl)c2=O)cc1C [(3S)-3-{[({1-[(2-chlorophenyl)methyl]-4-methyl-2-oxo-1,2-dihydro-3-pyridinyl}amino)carbonyl]amino}-3-(3,4-dimethylphenyl)propanoic acid]
Table 3, 30 minutes at 37° C.
  IC50: 10 nM

## COc1cccc(Cl)c1Cn1cccc(NC(=O)N[C@@H](CC(=O)O)c2ccc(C)cc2)c1=O [(3S)-3-[({[1-(2-chloro-6-methoxybenzyl)-2-oxo-1,2-dihydropyridin-3-yl]amino}carbonyl)amino]-3-(4-methylphenyl)propanoic acid]
[2]
  IC50: 100 nM
